The assay addresses T1, 3 × FLAG-tagged HOIP RBR domain in HEK293T cells (Homo sapiens, UniProt Q96EP0).
T1 construct: expressed in transfected cells; host or cells: HEK293T, transient, modified pcDNA3.1(+)
Put plainly: In-cell labeling, FLAG-IP, tryptic digest and LC-MS/MS. Format: cell-based. The following applies: 30 μM, 8 h. The method, then: Transfection and compound treatment
At approximately 40% confluency, as judged by visual inspection by microscope, cells were transfected by mixing Optimem (Gibco) with the relevant pcDNA3.1 construct (3 µg; 3×FLAG HOIP RBR, 3×FLAG HOIP RBR C885A or mock) and FuGENE transfection reagent (9 µL, vortexed prior to use; Promega) respectively. The solutions were mixed thoroughly and incubated at room temperature for 15 min, then added dropwise and the media was swirled gently to ensure homogenous mixing. The cells were incubated at 37 °C (Binder) for 48 h. Fresh DMEM media supplemented with 1% v/v FBS (Biosera) and 1% v/v L-glutamine/penicillin/streptomycin (Sigma-Aldrich) was aliquoted into 15 mL Falcon tubes (typically 8 mL/tube). […]
The lysates were clarified by centrifugation (Heraeus Fresco 17) at 17 000 × g, 4 °C for 20 min and the pellet discarded. The protein concentration was determined using the BCA assay (see […]
The protein concentrations of the clarified lysates were normalized with reaction buffer (50 mM Tris-HCl, pH 7.5, 1.5 mM MgCl2, 150 mM NaCl, 1 mM Na3VO4, complete protease inhibitor) to 1.0 mg/mL (final volume 400 µL, and <0.1% IGEPAL-CA630). […] One set of beads were denatured in 2× LDS loading buffer and analyzed by SDS PAGE and Western blot (FLAG antibody, Supplementary Figure S12) as described in […]

SMILES strings stand for the structures. Entries after “also recorded” stand apart in the source; their conditions may differ.

T1 sequence (Q96EP0 697-1072): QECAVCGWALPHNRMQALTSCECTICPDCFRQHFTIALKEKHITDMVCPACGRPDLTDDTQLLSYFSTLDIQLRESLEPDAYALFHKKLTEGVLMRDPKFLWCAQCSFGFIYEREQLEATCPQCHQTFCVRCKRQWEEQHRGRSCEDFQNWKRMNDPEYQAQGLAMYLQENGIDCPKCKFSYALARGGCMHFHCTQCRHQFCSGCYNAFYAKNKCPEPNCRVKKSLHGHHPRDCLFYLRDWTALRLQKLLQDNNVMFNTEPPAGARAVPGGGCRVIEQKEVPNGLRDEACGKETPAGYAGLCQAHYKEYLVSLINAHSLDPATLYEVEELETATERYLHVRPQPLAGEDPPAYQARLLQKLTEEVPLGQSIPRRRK

Regarding `COC(=O)/C=C/CNC(=O)c1cc2c([nH]c1=O)CCCC2` [Compound 11a], the “in-cell labeling of HOIP RBR at C885” value is “significantly labeled; also recorded: significant labeling”.

(Values after article PMC6383986, “Fragment-Based Covalent Ligand Screening Enables Rapid Discovery of Inhibitors for the RBR E3 Ubiquitin Ligase HOIP” (Journal of the American Chemical Society, 2019).)
